In PubChem BioAssay (NCI):
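Five concentrations, 48 hours, 96-well plates. Definition used: TGI = concentration required for complete inhibition of growth.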

Columns and labels:
Assay in all cases: growth of human tumour cells (NCI), 48 h
786-0 renal = tested on: 786-0 renal
A498 renal = tested on: A498 renal
A549 NSCLC = tested on: A549 NSCLC
ACHN renal = tested on: ACHN renal
BT-549 breast = tested on: BT-549 breast
CAKI-1 renal = tested on: CAKI-1 renal
COLO 205 colon = tested on: COLO 205 colon
DU-145 prostate = tested on: DU-145 prostate
EKVX NSCLC = tested on: EKVX NSCLC
HCC-2998 colon = tested on: HCC-2998 colon
HCT-116 colon = tested on: HCT-116 colon
HCT-15 colon = tested on: HCT-15 colon
HL-60(TB) leukemia = tested on: HL-60(TB) leukemia
HOP-62 NSCLC = tested on: HOP-62 NSCLC
HOP-92 NSCLC = tested on: HOP-92 NSCLC
HS 578T breast = tested on: HS 578T breast
HT29 colon = tested on: HT29 colon
IGROV1 ovarian = tested on: IGROV1 ovarian
K-562 leukemia = tested on: K-562 leukemia
KM12 colon = tested on: KM12 colon
LOX IMVI melanoma = tested on: LOX IMVI melanoma
M14 melanoma = tested on: M14 melanoma
MCF7 breast = tested on: MCF7 breast
MDA-MB-231 breast = tested on: MDA-MB-231 breast
MDA-MB-435 = tested on: MDA-MB-435
MDA-N = tested on: MDA-N
MOLT-4 leukemia = tested on: MOLT-4 leukemia
NCI-H460 lung = tested on: NCI-H460 lung
NCI/ADR-RES ovarian = tested on: NCI/ADR-RES ovarian
OVCAR-3 ovarian = tested on: OVCAR-3 ovarian
OVCAR-4 ovarian = tested on: OVCAR-4 ovarian
OVCAR-5 ovarian = tested on: OVCAR-5 ovarian
OVCAR-8 ovarian = tested on: OVCAR-8 ovarian
PC-3 prostate = tested on: PC-3 prostate
RPMI-8226 leukemia = tested on: RPMI-8226 leukemia
SF-268 CNS = tested on: SF-268 CNS
SF-295 CNS = tested on: SF-295 CNS
SF-539 CNS = tested on: SF-539 CNS
SK-MEL-2 melanoma = tested on: SK-MEL-2 melanoma
SK-MEL-28 melanoma = tested on: SK-MEL-28 melanoma
SK-MEL-5 melanoma = tested on: SK-MEL-5 melanoma
SK-OV-3 ovarian = tested on: SK-OV-3 ovarian
SN12C renal = tested on: SN12C renal
SNB-19 CNS = tested on: SNB-19 CNS
SNB-75 CNS = tested on: SNB-75 CNS
SR leukemia = tested on: SR leukemia
SW-620 colon = tested on: SW-620 colon
T-47D breast = tested on: T-47D breast
TK-10 renal = tested on: TK-10 renal
U251 CNS = tested on: U251 CNS
UACC-257 melanoma = tested on: UACC-257 melanoma
UACC-62 melanoma = tested on: UACC-62 melanoma
UO-31 renal = tested on: UO-31 renal
MALME-3M melanoma = tested on: MALME-3M melanoma
NCI-H226 lung = tested on: NCI-H226 lung
NCI-H23 lung = tested on: NCI-H23 lung
NCI-H522 lung = tested on: NCI-H522 lung
RXF 393 renal = tested on: RXF 393 renal

SMILES: O=C(c1ccccc1)c1ccc(N2C(=O)/C(=C/c3cccc([N+](=O)[O-])c3)N=C2c2ccccc2)c(N2C(=O)/C(=C/c3cccc([N+](=O)[O-])c3)N=C2c2ccccc2)c1
- TGI (786-0 renal): > 100 µM
- TGI (A498 renal): > 100 µM
- TGI (A549 NSCLC): > 100 µM
- TGI (ACHN renal): > 100 µM
- TGI (BT-549 breast): > 100 µM
- TGI (CAKI-1 renal): > 100 µM
- TGI (COLO 205 colon): 11.1 µM
- TGI (DU-145 prostate): > 100 µM
- TGI (EKVX NSCLC): > 100 µM
- TGI (HCC-2998 colon): 60.1 µM
- TGI (HCT-116 colon): > 100 µM
- TGI (HCT-15 colon): > 100 µM
- TGI (HL-60(TB) leukemia): 15.8 µM
- TGI (HOP-62 NSCLC): > 100 µM
- TGI (HOP-92 NSCLC): > 100 µM
- TGI (HS 578T breast): > 100 µM
- TGI (HT29 colon): > 100 µM
- TGI (IGROV1 ovarian): > 100 µM
- TGI (K-562 leukemia): > 100 µM
- TGI (KM12 colon): > 100 µM
- TGI (LOX IMVI melanoma): > 100 µM
- TGI (M14 melanoma): > 100 µM
- TGI (MCF7 breast): > 100 µM
- TGI (MDA-MB-231 breast): > 100 µM
- TGI (MDA-MB-435): 29.8 µM
- TGI (MDA-N): 86.6 µM
- TGI (MOLT-4 leukemia): > 100 µM
- TGI (NCI-H460 lung): > 100 µM
- TGI (NCI/ADR-RES ovarian): > 100 µM
- TGI (OVCAR-3 ovarian): > 100 µM
- TGI (OVCAR-4 ovarian): > 100 µM
- TGI (OVCAR-5 ovarian): > 100 µM
- TGI (OVCAR-8 ovarian): > 100 µM
- TGI (PC-3 prostate): > 100 µM
- TGI (RPMI-8226 leukemia): > 100 µM
- TGI (SF-268 CNS): > 100 µM
- TGI (SF-295 CNS): > 100 µM
- TGI (SF-539 CNS): > 100 µM
- TGI (SK-MEL-2 melanoma): > 100 µM
- TGI (SK-MEL-28 melanoma): > 100 µM
- TGI (SK-MEL-5 melanoma): 18.9 µM
- TGI (SK-OV-3 ovarian): > 100 µM
- TGI (SN12C renal): > 100 µM
- TGI (SNB-19 CNS): > 100 µM
- TGI (SNB-75 CNS): 81.6 µM
- TGI (SR leukemia): > 100 µM
- TGI (SW-620 colon): > 100 µM
- TGI (T-47D breast): > 100 µM
- TGI (TK-10 renal): > 100 µM
- TGI (U251 CNS): > 100 µM
- TGI (UACC-257 melanoma): > 100 µM
- TGI (UACC-62 melanoma): > 100 µM
- TGI (UO-31 renal): > 100 µM

SMILES: CC(C)(C)OC(=O)CCC1NC(=O)[C@@H]2Cc3c([nH]c4ccccc34)C(c3ccccc3)N2C1=O (some centres not stated)
- TGI (786-0 renal): > 100 µM
- TGI (A498 renal): > 100 µM
- TGI (A549 NSCLC): > 100 µM
- TGI (ACHN renal): 94.5 µM
- TGI (BT-549 breast): 64.4 µM
- TGI (CAKI-1 renal): 75.8 µM
- TGI (COLO 205 colon): 43.7 µM
- TGI (DU-145 prostate): > 100 µM
- TGI (EKVX NSCLC): > 100 µM
- TGI (HCT-116 colon): 42.7 µM
- TGI (HCT-15 colon): 90.5 µM
- TGI (HL-60(TB) leukemia): 51.2 µM
- TGI (HOP-62 NSCLC): 51.2 µM
- TGI (HOP-92 NSCLC): 67.7 µM
- TGI (HS 578T breast): 58.3 µM
- TGI (HT29 colon): 56 µM
- TGI (IGROV1 ovarian): 98.7 µM
- TGI (K-562 leukemia): > 100 µM
- TGI (KM12 colon): 65.4 µM
- TGI (LOX IMVI melanoma): 36.3 µM
- TGI (M14 melanoma): 87.2 µM
- TGI (MALME-3M melanoma): 43.4 µM
- TGI (MCF7 breast): > 100 µM
- TGI (MDA-MB-231 breast): 42.1 µM
- TGI (MDA-MB-435): 52.1 µM
- TGI (MDA-N): 45.7 µM
- TGI (MOLT-4 leukemia): > 100 µM
- TGI (NCI-H226 lung): 86.8 µM
- TGI (NCI-H23 lung): 79.6 µM
- TGI (NCI-H522 lung): 54.1 µM
- TGI (NCI/ADR-RES ovarian): 87.6 µM
- TGI (OVCAR-3 ovarian): 48.5 µM
- TGI (OVCAR-4 ovarian): > 100 µM
- TGI (OVCAR-5 ovarian): 70.2 µM
- TGI (OVCAR-8 ovarian): > 100 µM
- TGI (PC-3 prostate): 52.9 µM
- TGI (RPMI-8226 leukemia): > 100 µM
- TGI (RXF 393 renal): 45.7 µM
- TGI (SF-268 CNS): 75.8 µM
- TGI (SF-295 CNS): 37.8 µM
- TGI (SK-MEL-2 melanoma): 43.2 µM
- TGI (SK-MEL-28 melanoma): > 100 µM
- TGI (SK-MEL-5 melanoma): 37.9 µM
- TGI (SK-OV-3 ovarian): > 100 µM
- TGI (SN12C renal): 53.1 µM
- TGI (SNB-19 CNS): > 100 µM
- TGI (SR leukemia): > 100 µM
- TGI (SW-620 colon): > 100 µM
- TGI (T-47D breast): > 100 µM
- TGI (TK-10 renal): > 100 µM
- TGI (U251 CNS): 43.3 µM
- TGI (UACC-257 melanoma): 50.1 µM
- TGI (UACC-62 melanoma): 35.7 µM
- TGI (UO-31 renal): > 100 µM
